Data on 58 molecules can be found in patent US20260232662A1, “MIR-124 INDUCER, AND PREPARATION METHOD THEREFOR AND USE THEREOF” (NANJING SYNNOCARE PHARMACEUTICAL TECHNOLOGY CO., LTD., priority 2023, published 2026).

The subject of the experiment is miR-124. Description: Induction of miR-124 expression in PBMC cells (qPCR). Format: cell-based. Conditions: Homo sapiens, 72 h, 0.1 μM compound, human PBMCs stimulated with PMA/ionomycin, miR-191 reference gene, read-out: miR-124 expression, Fold change vs DMSO. On the procedure: This study evaluated the ability of the compound of the present invention to influence miR-124 transcriptional activity in vitro. The experiment analyzed miR-124 expression in human PBMCs (Sailybio) using quantitative PCR (qPCR).
Thawed human PBMCs (1 mL) were added to 19 mL of culture medium (RPMI1640+10% hFBS+1‰ 2-mercaptoethanol) and the PBMCs were incubated in a cell culture incubator for 30 minutes. The PBMCs were collected and the cells (3.0*10^6 cells/well/3 mL) were resuspended in medium containing PMA (10 ng/mL; Invivogen) and ionomycin (200 ng/mL; Invivogen). The cells were incubated in a 6-well plate for 48 hours. Diluted compound was added to the cells to achieve a final concentration of 0.1 μM. After 72 hours, the samples were centrifuged and the cells were collected.
Total miRNA was extracted from the cells using the MiPure Cell/Tissue miRNA Kit (Vazyme) according to the manufacturer's instructions, followed by purification. The purified samples were treated with genomic DNA elimination buffer, and reverse transcription was performed using a GeneAmp PCR System. The resulting cDNA was subjected to quantitative real-time PCR (qPCR) analysis on a QuantStudio™ 7 Flex Real-Time PCR System. Data analysis was performed using the QuantStudio 7 software with default settings to automatically determine Ct values, and the results were exported. In this assay, miR-191 was used as the reference gene, and the DMSO-treated group served as the control. The relative expression of miR-124 was calculated using the following formula: […]
In general terms: Real-time PCR tracks product formation cycle by cycle.

`Cn1c(=O)c(Nc2ccc(OC(F)(F)F)cc2)nc2c(Cl)cccc21` [Compound 1, 5-Chloro-1-methyl-3-((4-(trifluoromethoxy)phenyl)amino) quinoxalin-2(1H)-one]: the fold induction at 0.1 µM is 16.

In the case of `FC(F)(F)Oc1ccc(Nc2nc3c(Cl)cccc3n3cnnc23)cc1` [Compound 6], the fold induction at 0.1 µM turned out to be 11.9.

Turning to `FC(F)(F)Oc1ccc(NC2=Nc3c(Cl)cccc3N3CCN=C23)cc1` [Compound 9], the fold induction at 0.1 µM was 26.9.

In the case of `Cn1c(=O)c(Nc2ccc(SC(F)(F)F)cc2)nc2c(Cl)cccc21` [Compound 10], the fold induction at 0.1 µM stood at 15.4.

Turning to `Cn1c(=O)c(Nc2ccc(C(F)(F)F)cc2)nc2c(Cl)cccc21` [Compound 11], the fold induction at 0.1 µM came to 18.4.

For the molecule `Cn1c(=O)c(Nc2ccc3c(c2)OC(F)(F)O3)nc2c(Cl)cccc21` [Compound 12], the fold induction at 0.1 µM came to 22.

For `Cn1c(=O)c(Nc2ccc(OC(F)(F)F)cc2)nc2c(F)cc(Cl)cc21` [Compound 13], the fold induction at 0.1 µM was determined as 20.9.

With `Cn1c(=O)c(Nc2ccc3c(c2)OC(F)(F)O3)nc2c(F)cc(Cl)cc21` [Compound 14], the fold induction at 0.1 µM was determined as 24.7.

For the molecule `FC(F)(F)Sc1ccc(Nc2nc3c(Cl)cccc3n3ccnc23)cc1` [Compound 15], the fold induction at 0.1 µM amounted to 12.7.

For `FC(F)(F)c1ccc(Nc2nc3c(Cl)cccc3n3ccnc23)cc1` [Compound 16], the fold induction at 0.1 µM stood at 13.4.

Regarding `FC1(F)Oc2ccc(Nc3nc4c(Cl)cccc4n4ccnc34)cc2O1` [Compound 17], the fold induction at 0.1 µM is 19.

Consider `FC(F)Oc1ccc(Nc2nc3c(Cl)cccc3n3ccnc23)cc1` [Compound 21], for which the fold induction at 0.1 µM came to 15.5.

As for `FS(F)(F)(F)(F)c1ccc(Nc2nc3c(Cl)cccc3n3ccnc23)cc1` [Compound 22], the fold induction at 0.1 µM is 15.3.

For `Fc1cc(Nc2nc3c(Cl)cccc3n3ccnc23)ccc1C(F)(F)F` [Compound 28], the fold induction at 0.1 µM was 10.4.

Turning to `FC(F)(F)c1ccc(Nc2nc3c(Cl)cccc3n3ccnc23)cc1Cl` [Compound 29], the fold induction at 0.1 µM stood at 9.32.

For `FC(F)(F)c1ccc(Nc2nc3c(Cl)cccc3n3ccnc23)nc1` [Compound 34], the fold induction at 0.1 µM stood at 14.7.

Consider `FC1(F)Cc2cc(Nc3nc4c(Cl)cccc4n4ccnc34)ccc2O1` [Compound 39, 6-Chloro-N-(2,2-difluoro-2,3-dihydrobenzofuran-5-yl) imidazolo [1,2-a] quinoxalin-4-amine], for which the fold induction at 0.1 µM turned out to be 16.8.

Regarding `FC1(F)Oc2ccc(Nc3nc4c(Cl)cccc4n4ccnc34)cc2C1(F)F` [Compound 40, 6-Chloro-N-(2,2,3,3-tetrafluoro-2,3-dihydrobenzofuran-5-yl) imidazolo [1,2-a] quinoxalin-4-amine], the fold induction at 0.1 µM stood at 17.5.

Turning to `Fc1cccc2c1nc(Nc1ccc(OC(F)(F)F)cc1)c1nccn12` [Compound 41], the fold induction at 0.1 µM turned out to be 24.4.

Consider `Fc1cccc2c1nc(Nc1ccc3c(c1)OC(F)(F)O3)c1nccn12` [Compound 42], for which the fold induction at 0.1 µM stood at 14.1.

As for `Fc1cccc2c1nc(Nc1ccc(OC(F)(F)F)c(Cl)c1)c1nccn12` [Compound 44], the fold induction at 0.1 µM was 17.5.

As for `Fc1cccc2c1nc(Nc1ccc(C(F)(F)F)cc1)c1nccn12` [Compound 45], the fold induction at 0.1 µM was found to be 17.9.

`Fc1cc(Nc2nc3c(F)cccc3n3ccnc23)ccc1C(F)(F)F` [Compound 46]: the fold induction at 0.1 µM was 9.99.

Regarding `Fc1cccc2c1nc(Nc1ccc(C(F)(F)F)c(Cl)c1)c1nccn12` [Compound 47], the fold induction at 0.1 µM turned out to be 9.86.

Consider `FC(F)(F)Oc1ccc(Nc2nc3c(Br)cccc3n3ccnc23)cc1` [Compound 48], for which the fold induction at 0.1 µM turned out to be 20.4.

Take `Fc1cc(Nc2nc3c(Br)cccc3n3ccnc23)ccc1OC(F)(F)F` [Compound 49]: the fold induction at 0.1 µM amounted to 19.5.

As for `FC(F)(F)Oc1ccc(Nc2nc3c(Br)cccc3n3ccnc23)cc1Cl` [Compound 50], the fold induction at 0.1 µM worked out at 18.5.

Consider `FC(F)(F)c1ccc(Nc2nc3c(Br)cccc3n3ccnc23)cc1` [Compound 51], for which the fold induction at 0.1 µM amounted to 23.1.

Turning to `Fc1cc(Nc2nc3c(Br)cccc3n3ccnc23)ccc1C(F)(F)F` [Compound 52], the fold induction at 0.1 µM stood at 22.3.

For the molecule `Fc1cc(Cl)cc2c1nc(Nc1ccc(OC(F)(F)F)cc1)c1nccn12` [Compound 54], the fold induction at 0.1 µM was 14.9.

With `Fc1cc(Cl)cc2c1nc(Nc1ccc3c(c1)OC(F)(F)O3)c1nccn12` [Compound 55], the fold induction at 0.1 µM is 22.3.

As to `Fc1cc(Nc2nc3c(F)cc(Cl)cc3n3ccnc23)ccc1OC(F)(F)F` [Compound 56], the fold induction at 0.1 µM turned out to be 17.2.

Consider `Fc1cc(Cl)cc2c1nc(Nc1ccc(C(F)(F)F)cc1)c1nccn12` [Compound 58], for which the fold induction at 0.1 µM is 27.3.

As for `FC(F)(F)Oc1ccc(Nc2nc3c(Cl)cc(Cl)cc3n3ccnc23)cc1` [Compound 61], the fold induction at 0.1 µM is 12.1.

In the case of `FC(F)(F)c1ccc(Nc2nc3c(Cl)cc(Cl)cc3n3ccnc23)cc1` [Compound 62], the fold induction at 0.1 µM turned out to be 15.5.

With `Fc1cc(Nc2nc3c(Cl)cc(Cl)cc3n3ccnc23)ccc1C(F)(F)F` [Compound 63], the fold induction at 0.1 µM turned out to be 18.4.

For the molecule `FC(F)(F)Oc1ccc(Nc2nc3c(Cl)cc(Cl)cc3n3ccnc23)cc1Cl` [Compound 66], the fold induction at 0.1 µM turned out to be 22.7.

Take `Fc1cc(NC2=Nc3c(Cl)cccc3N3CCN=C23)ccc1C(F)(F)F` [Compound 69]: the fold induction at 0.1 µM was 22.9.

Consider `FC(F)(F)Oc1ccc(NC2=Nc3c(Cl)cccc3N3CCN=C23)cc1Cl` [Compound 72], for which the fold induction at 0.1 µM worked out at 19.

Turning to `Fc1cccc2c1N=C(Nc1ccc(OC(F)(F)F)cc1)C1=NCCN12` [Compound 73], the fold induction at 0.1 µM worked out at 8.59.

Consider `Fc1cccc2c1N=C(Nc1ccc(C(F)(F)F)cc1)C1=NCCN12` [Compound 74], for which the fold induction at 0.1 µM came out at 31.6.

As for `FC(F)(F)Oc1ccc(NC2=Nc3c(Br)cccc3N3CCN=C23)cc1` [Compound 79], the fold induction at 0.1 µM amounted to 17.8.

`FC(F)(F)c1ccc(NC2=Nc3c(Br)cccc3N3CCN=C23)cc1` [Compound 80]: the fold induction at 0.1 µM came to 19.8.

As for `Fc1cc(NC2=Nc3c(Br)cccc3N3CCN=C23)ccc1C(F)(F)F` [Compound 81], the fold induction at 0.1 µM turned out to be 15.3.

In the case of `Fc1cc(NC2=Nc3c(Br)cccc3N3CCN=C23)ccc1OC(F)(F)F` [Compound 83], the fold induction at 0.1 µM stood at 18.3.

Take `FC(F)(F)Oc1ccc(NC2=Nc3c(Cl)cc(Cl)cc3N3CCN=C23)cc1` [Compound 85]: the fold induction at 0.1 µM was 10.4.

With `FC(F)(F)Oc1ccc(NC2=Nc3c(Cl)cc(Cl)cc3N3CCN=C23)cc1Cl` [Compound 87], the fold induction at 0.1 µM was found to be 15.8.

For the molecule `Fc1cc(Cl)cc2c1N=C(Nc1ccc(OC(F)(F)F)cc1)C1=NCCN12` [Compound 91], the fold induction at 0.1 µM stood at 27.6.

As to `Fc1cc(NC2=Nc3c(F)cc(Cl)cc3N3CCN=C23)ccc1OC(F)(F)F` [Compound 92], the fold induction at 0.1 µM was 18.8.

As to `Fc1cc(Cl)cc2c1N=C(Nc1ccc(C(F)(F)F)cc1)C1=NCCN12` [Compound 95], the fold induction at 0.1 µM is 27.

As for `Fc1cc(NC2=Nc3c(F)cc(Cl)cc3N3CCN=C23)ccc1C(F)(F)F` [Compound 96], the fold induction at 0.1 µM was found to be 17.7.

As to `Fc1cccc2nc(Nc3ccc(OC(F)(F)F)cc3)c3nccn3c12` [Compound B2, 9-fluoro-N-(4-(trifluoromethoxy)phenyl)imidazolo [1,2-a]quinoxalin-4-amine], the fold induction at 0.1 µM came to 37.4.

Take `FC(F)(F)Oc1ccc(Nc2nc3cccc(Br)c3n3ccnc23)cc1` [Compound B3, 9-bromo-N-(4-(trifluoromethoxy)phenyl)imidazolo [1,2-a]quinoxalin-4-amine]: the fold induction at 0.1 µM was 23.5.

Turning to `Fc1ccc2nc(Nc3ccc(OC(F)(F)F)cc3)c3nccn3c2c1` [Compound B5, 8-fluoro-N-(4-(trifluoromethoxy)phenyl)imidazolo [1,2-a]quinoxalin-4-amine], the fold induction at 0.1 µM was found to be 31.3.

As for `FC(F)(F)Oc1ccc(Nc2nc3ccc(Br)cc3n3ccnc23)cc1` [Compound B6, 8-bromo-N-(4-(trifluoromethoxy)phenyl)imidazolo [1,2-a]quinoxalin-4-amine], the fold induction at 0.1 µM worked out at 22.

Consider `Fc1ccc2c(c1)nc(Nc1ccc(OC(F)(F)F)cc1)c1nccn12` [Compound B8, 7-fluoro-N-(4-(trifluoromethoxy)phenyl)imidazolo [1,2-a]quinoxalin-4-amine], for which the fold induction at 0.1 µM was 33.5.

With `FC(F)(F)Oc1ccc(Nc2nc3ccc(Cl)c(Cl)c3n3ccnc23)cc1` [Compound B16, 8,9-dichloro-N-(4-(trifluoromethoxy)phenyl)imidazolo [1,2-a]quinoxalin-4-amine], the fold induction at 0.1 µM was found to be 33.4.

In the case of `Fc1ccc2nc(Nc3ccc(OC(F)(F)F)cc3)c3nccn3c2c1Cl` [Compound B17, 9-chloro-8-fluoro-N-(4-(trifluoromethoxy)phenyl)imidazolo [1,2-a]quinoxalin-4-amine], the fold induction at 0.1 µM was 31.9.
